This is an account of results in PubChem BioAssay AID489040 (Sanford-Burnham Center for Chemical Genomics, 2010).

The structures appear in SMILES notation. The source made the active and inactive calls.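 How the source made its calls: active means mean half-maximal activating concentration from the dose-response fit at or below a set limit; inactive means the rest.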 A value given as a limit tells only on which side of the number the result lay.

As a reminder, the EC50 is the midpoint of the concentration-response curve.

This assay has as its target CHO-XBP1 luciferase reporter, IRE1-XBP1 UPR activation. The assay is described as follows: activators of IRE1-XBP1 UPR arm, dose response, counter-screen for apoptotic UPR arm activators, CHO-XBP1 cells, luminescence (AID 489040).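 Further: reporter read after six hours of compound exposure.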 A general note: A counterscreen serves to expose hits that act by an unwanted route or on another target.
As to `Cc1cc(-n2c(C)cc(C(=O)CCl)c2C)no1`, the EC50 was > 80 µM (inactive). `CCOc1cc(NC(=O)CCl)c(OCC)cc1NC(=O)CCl`: the EC50 was > 80 µM (inactive). As for `O=C1NC(=O)C(=Cc2ccc(-c3ccc(Cl)cc3)o2)C(=O)N1`, the EC50 is > 80 µM (inactive). In the case of `O=C(/C(=N/N=C/c1ccc(O)c(O)c1)c1ccccc1)c1ccccc1`, the EC50 is > 80 µM (inactive).

As for `Cc1ccc(C[n+]2c(-c3ccc(C)cc3)cc(-c3ccc(C)cc3)cc2-c2ccc(C)cc2)cc1`, the EC50 is > 80 µM (inactive).

As to `O=C(Nc1cccc(S(=O)(=O)N2CCCCC2)c1)c1ccc([N+](=O)[O-])o1`, the EC50 is > 80 µM (inactive). Take `CCOC(=O)N1CCN(S(=O)(=O)c2ccc(C(=O)Nc3nc4c(s3)CC(C)CC4)cc2)CC1` (configuration not stated): the EC50 was > 80 µM (inactive). On to `CCOc1ccc2nc(SC3CC(=O)N(c4ccc(C)cc4)C3=O)sc2c1` (configuration not stated), for which the EC50 is > 80 µM (inactive). `COc1ccc(/C=C\c2nc(=O)c3ccccc3o2)cc1`: the EC50 was > 80 µM (inactive). `O=S(=O)(c1ccc(Cl)cc1)c1snnc1-c1ccccc1`: the EC50 was > 80 µM (inactive). With `CCOc1ccc(N2C(=O)/C(=C\c3cccs3)C(=O)NC2=S)cc1`, the EC50 is > 80 µM (inactive). As for `COc1ccc(-c2cc(=O)oc3c(C)c(OC(=O)c4cccs4)ccc23)cc1`, the EC50 was > 80 µM (inactive).

For the compound `O=C(Nc1cccc(-c2nc3cccnc3s2)c1)C1c2ccccc2Oc2ccccc21`, the EC50 was 5.58 µM. For `Cc1ccc(C(=O)Cn2c(C(=O)/C=C/c3ccccc3)nc3ccccc32)cc1` the value was 18.3 µM; for `O=C(CCN1C(=O)/C(=C\c2ccccc2F)SC1=S)N1CCCCC1`, > 80 µM (inactive); for `Cc1cc(N/N=C/c2ccccc2[N+](=O)[O-])nc(-n2nc(C)cc2C)n1`, > 80 µM (inactive). In the case of `Oc1ccc(/C=N/Nc2ncnc3c2ncn3Cc2ccccc2)cc1O`, the EC50 entry is “inactive”. Consider `COc1cc(/C=C/C(=O)N2C(=O)c3cccc(N)c3C2=O)cc(OC)c1OC`, for which the EC50 was > 80 µM (inactive).

As to `O=C(CCl)Nc1cccc(S(=O)(=O)NC2=NCCCCC2)c1`, the EC50 was > 80 µM (inactive). As for `O=[N+]([O-])c1ccc(N/N=C/c2cccc(O)c2O)c(S(=O)(=O)N2CCOCC2)c1`, the EC50 result was “inactive”. As for `O=C(Cn1ncc(Cl)c(Cl)c1=O)c1ccc2c(c1)OCCO2`, the EC50 is > 80 µM (inactive).

In the case of `Cc1ccc2nc(-c3ccc(NC(=S)NC4CC(C)(C)NC(C)(C)C4)cc3)sc2c1`, the EC50 is > 80 µM (inactive). `COc1cccc2sc(Nc3nc(-c4ccccn4)cs3)nc12`: the EC50 was > 80 µM (inactive). Take `O=C(/C=C/c1ccc([N+](=O)[O-])cc1)/C=C/c1ccco1`: the EC50 is > 80 µM (inactive).

Turning to `CCOc1cc(/C=N/Nc2cc(C)nc(-n3nc(C)cc3C)n2)ccc1O`, the EC50 was > 80 µM (inactive). For `COc1ccc(Cn2c(SCc3ccc(C)cc3)nc3cc(OC)c(OC)cc3c2=N)cc1Cl` the value was > 80 µM (inactive); for `COCCN=c1scc(-c2cccs2)n1/N=C/c1ccc(O)c(O)c1O`, > 80 µM (inactive); for `C/C(=N\NC(=O)C(C)Oc1ccc([N+](=O)[O-])cc1)c1ccccn1` (configuration not stated), > 80 µM (inactive). For `CC(C)c1ccc(N2C(=O)NC(=O)/C(=C\C=C\c3ccco3)C2=O)cc1` the value was > 80 µM (inactive); for `Cc1ccc(-c2nc(SCC(=O)Nc3cc(C)on3)c3c(=O)n(C)c(=O)n(C)c3n2)cc1`, “inactive”. `COc1ccc(C(=O)/C=C2/C(=O)Nc3ccccc32)c(OC)c1`: the EC50 was > 80 µM (inactive). `Fc1ccc(NC(=S)Nc2nccs2)cc1`: the EC50 is > 80 µM (inactive).

Take `CCn1c(-c2ccccc2)c(C(=O)CCl)c2ccccc21`: the EC50 is > 80 µM (inactive). In the case of `CCCN(CCC)C(=O)c1cc([N+](=O)[O-])cc2c1-c1ccc([N+](=O)[O-])cc1C2=C(C#N)C#N` it was > 80 µM (inactive); in that of `O=C(/C=C/c1cccnc1)c1ccc(NC(=O)c2cccc(Br)c2)cc1`, > 80 µM (inactive); in that of `O=C(CSc1cccc2cccnc12)N/N=C/c1cccnc1`, > 80 µM (inactive). As for `CCOC(=O)CSc1cccc2cccnc12`, the EC50 is > 80 µM (inactive). Take `COc1nc(N)nc(NC(=O)c2cccs2)c1N=O`: the EC50 was > 80 µM (inactive). Regarding `O=C(/C=C/c1ccc(O)c(O)c1)OCCc1ccccc1`, the EC50 was > 80 µM (inactive).

As to `CCN(CC)S(=O)(=O)c1ccc(N/N=C(\C)c2ccc3c(c2)OCO3)c([N+](=O)[O-])c1`, the EC50 is 17.5 µM. For `Cc1noc2ncnc(Sc3ccc(Cl)cc3)c12` the value was > 80 µM (inactive); for `Cc1cc(C(=O)CCl)c(C)n1CC1COc2ccccc2O1` (configuration not stated), > 80 µM (inactive).

Consider `Cc1nn(Cc2c(Cl)cccc2Cl)c(C)c1NC(=O)c1sc2ccccc2c1Cl`, for which the EC50 entry is “inactive”. For the compound `COc1cc(NS(=O)(=O)c2ccc3ccccc3c2)c2ncccc2c1`, the EC50 was 15.5 µM. With `Oc1c(C(Nc2ccccn2)c2ccccn2)ccc2cccnc12` (configuration not stated), the EC50 is > 80 µM (inactive). Take `O=C(Nc1ccc(O)c2c(=O)cc(-c3cccc(Cl)c3)oc12)c1ccccc1Cl`: the EC50 is > 80 µM (inactive). In the case of `Oc1ccc(CN2CCN(Cc3ccccc3)CC2)c2cccnc12`, the EC50 was > 80 µM (inactive). In the case of `Nc1c(C(=O)Nc2ccc(S(=O)(=O)N3CCCC3)cc2)sc2nc3ccc(OC(F)(F)F)cc3cc12` it was > 80 µM (inactive); in that of `COc1ccc2c(c1)CCc1c(C(=O)Nc3cc(C)n(Cc4ccc(Cl)cc4)n3)noc1-2`, > 80 µM (inactive). `CN(C)C(=O)CSc1cccc2cccnc12`: the EC50 is > 80 µM (inactive).

`O=c1cc(C(Cl)(Cl)Cl)oc2c1ccc1ccccc12`: the EC50 result is “inactive”. As to `Oc1[nH]c2ccc(Br)cc2c1N=NC(=S)N1CCOCC1`, the EC50 was > 80 µM (inactive).

With `CCN(CC)c1ccc(/C=C2\C(=O)N(c3nnc(C)c(=O)[nH]3)N=C2C)cc1`, the EC50 is > 80 µM (inactive). As for `Cc1ccc(F)cc1N=Cc1c(O)c2ccccc2oc1=O`, the EC50 is > 80 µM (inactive).

For the compound `COc1ccc(C(c2c(C)[nH]n(C(N)=S)c2=O)C(C#N)C#N)cc1` (configuration not stated), the EC50 was > 80 µM (inactive). In the case of `N#Cc1ccc(N/N=C/c2cn(-c3ccccc3)nc2-c2ccccc2)c([N+](=O)[O-])c1` it was > 80 µM (inactive); in that of `Cc1ccc(C)c(N=Cc2c(O)c3ccccc3oc2=O)c1`, “inactive”. Take `C/C(=N\NC(=O)c1ccc(Cl)cc1)c1ccccn1`: the EC50 is > 80 µM (inactive). For `O=C(/C=C\c1ccccc1OC(=O)c1ccccc1F)c1cc2ccccc2o1`, the EC50 is 13.7 µM. For the compound `O=C(/C(=C/c1ccc(Cl)cc1)c1nc2ccccc2[nH]1)c1cccs1`, the EC50 is > 80 µM (inactive). Take `Cc1ccc2c(C(=O)CCl)c(C)[nH]c2c1`: the EC50 is > 80 µM (inactive). Consider `O=C1/C(=C/c2ccccc2[N+](=O)[O-])COc2ccccc21`, for which the EC50 is > 80 µM (inactive). Regarding `CC(C)N=c1scc(-c2ccco2)n1/N=C/c1ccc(O)c(O)c1`, the EC50 was 4.51 µM. As to `CCc1cc2c(=O)[nH]c(-c3ccccn3)nc2s1`, the EC50 is > 80 µM (inactive). In the case of `COc1cc(/C=C(/C(=O)c2cccs2)c2nc3ccccc3[nH]2)cc(OC)c1O` it was > 80 µM (inactive); in that of `C=CCSC(=C(C#N)C#N)c1cc2c([nH]1)CCCC2`, > 80 µM (inactive). With `CCOC(=O)c1cnc(-n2nc(C)cc2C)nc1NC1CCCCC1`, the EC50 is > 80 µM (inactive). In the case of `C=CCN1C(=O)/C(=C/c2ccc3c(c2)CCCN3CCC)C(=O)NC1=S`, the EC50 was > 80 µM (inactive). With `O=C(CSc1ccc2ccccc2c1)NCCc1ccc(O)c(O)c1`, the EC50 was > 80 µM (inactive).

On to `COc1cccc(/C=N/Nc2nc(Nc3ccccc3)nc(-n3nc(C)cc3C)n2)c1O`, for which the EC50 was 5.09 µM. Take `CC(C)[C@H](NC(=O)OC(C)(C)C)c1nnc(S(=O)(=O)Cc2c(F)cccc2Cl)o1`: the EC50 is > 80 µM (inactive). Consider `C/C(=N\NC(=O)c1cc(-c2cccs2)nc2ccccc12)c1ccccn1`, for which the EC50 was > 80 µM (inactive).

On to `CCOC(=O)C(=Cc1ccc(OCc2ccc([N+](=O)[O-])cc2)c(OC)c1)C(=O)OCC`, for which the EC50 is > 80 µM (inactive). For `O=C(CCC(=O)Nc1ccc(Cl)cc1Cl)N/N=C/c1ccc([N+](=O)[O-])o1` the value was > 80 µM (inactive); for `Cc1ccc(S/C=C\C(=O)c2ccccc2)cc1`, > 80 µM (inactive).

As to `O=C(N/N=C/c1cccc2cccnc12)c1ccccc1O`, the EC50 is > 80 µM (inactive). Turning to `O=C(/C=C/Sc1ccccc1)c1ccccc1`, the EC50 was > 80 µM (inactive). Turning to `COc1ccc(N2CCN(Cc3cc(=O)oc4cc(-c5ccccc5)c(O)cc34)CC2)cc1`, the EC50 is > 80 µM (inactive).

In the case of `COc1ccc(C(=O)C(CN2CCOCC2)c2ccccc2)cc1` (configuration not stated), the EC50 was > 80 µM (inactive). On to `O=C(N/N=C\c1cc2c(cc1Cl)OCO2)c1ccc(Br)s1`, for which the EC50 is > 80 µM (inactive). `CC(C)(C)C1=CC(=O)C(=O)C(C(C)(C)C)=C1`: the EC50 was > 80 µM (inactive). On to `Cn1c(SCC(=O)NCC2CCCO2)ncc(C(=O)Nc2ccc(Cl)cc2)c1=O` (configuration not stated), for which the EC50 is > 80 µM (inactive). For `CCc1nn(-c2cc(Oc3cccc4ccccc34)nc(-c3ccccc3)n2)c(N)c1C#N` the value was “inactive”; for `CC1=NN(c2cccc(C(=O)O)c2)C(=O)/C1=C\C=C/c1ccccc1`, > 80 µM (inactive). On to `CCOC(=O)c1cnc(-n2nc(C)cc2C)nc1Nc1ccc(N(C)C)cc1`, for which the EC50 was > 80 µM (inactive). In the case of `O=C(NCc1cccnc1)/C(=C/c1ccc(-c2cccc(Cl)c2)o1)S(=O)(=O)c1ccccc1` it was > 80 µM (inactive); in that of `Cc1cc(C)n(-c2nc(NC(C)(C)C)nc(NC(C)(C)C)n2)n1`, > 80 µM (inactive).
